Tested on: bacteria
Experiment: Non-antimicrobial dose and plasma antimicrobial threshold of antibacterial tetracyclines
Description: For example, tetracycline compounds that have significant antibacterial activity may be administered in an amount which is 10-80% of the antibacterial amount. More preferably, the antibacterial tetracycline compound is administered in an amount which is 40-70% of the antibacterial amount.
Examples of antibacterial tetracyclines administered in a non-antibacterial amount are depicted in Table 1, as follows: […]

Row | SMILES | Plasma Antimicrobial Threshold Level [µg/mL] | Maximum Non-Antimicrobial Dose (twice daily) [mg b.i.d] | Maximum Non-Antimicrobial Dose (once daily) [mg q.d.]
1 | C[C@H]1c2cccc(O)c2C(=O)C2=C(O)[C@]3(O)C(=O)C(C(N)=O)=C(O)[C@@H](N(C)C)[C@@H]3[C@@H](O)[C@@H]21 [Doxycycline] | 1.0 | 20 | 
2 | CN(C)c1ccc(O)c2c1C[C@H]1C[C@H]3[C@H](N(C)C)C(O)=C(C(N)=O)C(=O)[C@@]3(O)C(O)=C1C2=O [Minocycline] | 0.8 |  | 38
3 | CN(C)[C@@H]1C(O)=C(C(N)=O)C(=O)[C@@]2(O)C(O)=C3C(=O)c4c(O)cccc4[C@@](C)(O)[C@H]3C[C@@H]12 [Tetracycline] | 0.5 |  | 60

Source: US20080233151A1, “Use of non-antibacterial tetracycline analogs and formulations thereof for the treatment of bacterial exotoxins” (priority 2002, published 2008)
